pIC50: −log10 of the molar value.
What was measured:
Format in all cases: biochemical
[1] = target: immunoproteasome LMP2 subunit (Homo sapiens, UniProt P28065); assay: Caliper-based proteasome enzymatic activity assay, LMP2; conditions: human recombinant immunoproteasome 0.3 nM, FAM peptide substrate 1 μM, rt 2 h
[2] = target: constitutive proteasome β5c subunit (Homo sapiens, UniProt P28074); assay: Caliper-based proteasome enzymatic activity assay, β5c; conditions: human recombinant constitutive proteasome 0.3 nM, FAM peptide substrate 1 μM, rt 3 h
[3] = target: immunoproteasome LMP7/B5i subunit (Homo sapiens, UniProt P28062); assay: Caliper-based proteasome enzymatic activity assay, LMP7; conditions: human recombinant immunoproteasome 0.3 nM, FAM peptide substrate 1 μM, rt 3 h

Row | pIC50 [1] | pIC50 [2] | pIC50 [3] | Compound
1 | 5.56 | < 5.30 | 7.57 | CC(C)N(C(=O)C(C#N)=Cc1cccc(CCOC(=O)N[C@@H](Cc2ccccc2)B(O)O)c1)C(C)C (single isomer, unassigned) [Example 74]
2 | 5.60 | 5.52 | 8.85 | CC(C)N(C(=O)C(C#N)=Cc1cccc(CCOC(=O)N[C@@H](Cc2ccccc2)B(O)O)c1)C(C)C (single isomer, unassigned) [Example 75]
3 | 7.80 | 8.15 | 9.00 | CC(C)(C)NC(=O)C(C#N)=Cc1cccc(CC[C@H](NC(=O)c2cc(Cl)ccc2Cl)C(=O)N[C@@H](Cc2ccccc2)B(O)O)c1 [Example 4, (R)-1-((S)-4-(3-(3-(tert-butylamino)-2-cyano-3-oxoprop-1-enyl)phenyl)-2-(2,5-dichlorobenzamido)butanamido)-2-phenylethylboronic Acid]
4 | 6.85 | 7.02 | 8.52 | CN(C)C(=O)C(C#N)=Cc1cccc(OCCC(=O)N[C@@H](Cc2ccccc2)B(O)O)c1 [Example 5, (R)-1-(3-(3-(2-cyano-3-(dimethylamino)-3-oxoprop-1-enyl)phenoxy)propanamido)-2-phenylethylboronic Acid]
5 | 6.30 | 7.22 | 8.30 | CCN(CC)C(=O)C(C#N)=Cc1cccc(OCCC(=O)N[C@@H](Cc2ccccc2)B(O)O)c1 [Example 7, (R)-1-(3-(3-(2-cyano-3-(diethylamino)-3-oxoprop-1-enyl)phenoxy)propanamido)-2-phenylethylboronic Acid]
6 | 6.09 | 7.00 | 8.10 | N#CC(=Cc1cccc(OCCC(=O)N[C@@H](Cc2ccccc2)B(O)O)c1)C(=O)N1CCOCC1 [Example 9, (R)-1-(3-(3-(2-cyano-3-morpholino-3-oxoprop-1-enyl)phenoxy)propanamido)-2-phenylethylboronic Acid]
7 | 6.01 | 7.13 | 8.30 | N#CC(=Cc1cccc(OCCC(=O)N[C@@H](Cc2ccccc2)B(O)O)c1)C(=O)NC1CCOCC1 [Example 10, (R)-1-(3-(3-(2-cyano-3-oxo-3-(tetrahydro-2H-pyran-4-ylamino)prop-1-enyl)phenoxy)propanamido)-2-phenylethylboronic Acid]
8 | 5.45 | 5.43 | 7.48 | CC(C)(C)NC(=O)C(C#N)=Cc1cccc(COC(=O)N[C@@H](Cc2ccccc2)B(O)O)c1 [Example 16, (R)-(1-((((3-(3-(tert-butylamino)-2-cyano-3-oxoprop-1-en-1-yl)benzyl)oxy)carbonyl)amino)-2-phenylethyl)boronic Acid]
9 | 7.00 | 7.57 | 8.52 | CN(C(=O)C(C#N)=Cc1cccc(OCCC(=O)N[C@@H](Cc2ccccc2)B(O)O)c1)c1ccccc1 [Example 22, (R)-(1-(3-(3-(2-cyano-3-(methyl(phenyl)amino)-3-oxoprop-1-en-1-yl)phenoxy)propanamido)-2-phenylethyl)boronic Acid]
10 | < 5.30 | 8.10 | 9.10 | N#CC(=Cc1cccc(OCCC(=O)N[C@@H](Cc2coc3ccccc23)B(O)O)c1)c1ccccn1 [Example 23, (R)-(2-(benzofuran-3-yl)-1-(3-(3-(2-cyano-2-(pyridin-2-yl)vinyl)phenoxy)propanamido)ethyl)boronic Acid]
11 | 5.72 | 5.71 | 7.92 | CN(C)C(=O)C(C#N)=Cc1cccc(CCCC(=O)N[C@@H](Cc2ccccc2)B(O)O)c1 [Example 24, (R)-(1-(4-(3-(2-cyano-3-(dimethylamino)-3-oxoprop-1-en-1-yl)phenyl)butanamido)-2-phenylethyl)boronic Acid]
12 | 5.52 | 5.38 | 8.10 | N#CC(=Cc1cccc(CCCC(=O)N[C@@H](Cc2ccccc2)B(O)O)c1)n1cncn1 [Example 25, (R)-(1-(4-(3-(2-cyano-2-(1H-1,2,4-triazol-1-yl)vinyl)phenyl)butanamido)-2-phenylethyl)boronic Acid]
13 | 6.51 | 7.47 | 8.40 | COc1ccc(C=C(C#N)C(=O)N(C)C)cc1OCCC(=O)N[C@@H](Cc1ccccc1)B(O)O [Example 26, (R)-(1-(3-(5-(2-cyano-3-(dimethylamino)-3-oxoprop-1-en-1-yl)-2-methoxyphenoxy)propanamido)-2-phenylethyl)boronic Acid]
14 | 6.80 | 7.60 | 8.52 | CN(C)C(=O)C(C#N)=Cc1ccc(F)c(OCCC(=O)N[C@@H](Cc2ccccc2)B(O)O)c1 [Example 27, (R)-(1-(3-(5-(2-cyano-3-(dimethylamino)-3-oxoprop-1-en-1-yl)-2-fluorophenoxy)propanamido)-2-phenylethyl)boronic Acid]
15 | 7.31 | 7.47 | 8.70 | N#CC(=Cc1ccc(F)c(OCCC(=O)N[C@@H](Cc2ccccc2)B(O)O)c1)c1ccccn1 [Example 28, (R)-(1-(3-(5-(2-cyano-2-(pyridin-2-yl)vinyl)-2-fluorophenoxy)propanamido)-2-phenylethyl)boronic Acid]
16 | 7.77 | 7.44 | 8.22 | COc1ccc(C=C(C#N)c2ccccn2)cc1OCCC(=O)N[C@@H](Cc1ccccc1)B(O)O [Example 29, (R)-(1-(3-(5-(2-cyano-2-(pyridin-2-yl)vinyl)-2-methoxyphenoxy)propanamido)-2-phenylethyl)boronic Acid]
17 | 6.82 | 6.92 | 8.40 | N#CC(=Cc1cccc(OCCC(=O)N[C@@H](Cc2ccccc2)B(O)O)c1)C(=O)N1CCC1 [Example 30, (R)-(1-(3-(3-(3-(azetidin-1-yl)-2-cyano-3-oxoprop-1-en-1-yl)phenoxy)propanamido)-2-phenylethyl)boronic Acid]
18 | 6.57 | 6.92 | 8.40 | CCNC(=O)C(C#N)=Cc1cccc(OCCC(=O)N[C@@H](Cc2ccccc2)B(O)O)c1 [Example 31, (R)-(1-(3-(3-(2-cyano-3-(ethylamino)-3-oxoprop-1-en-1-yl)phenoxy)propanamido)-2-phenylethyl)boronic Acid]
19 | 6.74 | 7.22 | 8.40 | N#CC(=Cc1cccc(OCCC(=O)N[C@@H](Cc2ccccc2)B(O)O)c1)C(=O)N1CCN(C2COC2)CC1 [Example 32, (R)-(1-(3-(3-(2-cyano-3-(4-(oxetan-3-yl)piperazin-1-yl)-3-oxoprop-1-en-1-yl)phenoxy)propanamido)-2-phenylethyl)boronic Acid]
20 | 7.00 | 7.02 | 8.30 | N#CC(=Cc1cccc(OCCC(=O)N[C@@H](Cc2ccccc2)B(O)O)c1)c1ccc(C(F)(F)F)cn1 [Example 33, (R)-(1-(3-(3-(2-cyano-2-(5-(trifluoromethyl)pyridin-2-yl)vinyl)phenoxy)propanamido)-2-phenylethyl)boronic Acid]
21 | 6.92 | 7.10 | 8.10 | N#CC(=Cc1cccc(OCCC(=O)N[C@@H](Cc2ccccc2)B(O)O)c1)c1ncccc1F [Example 34, (R)-(1-(3-(3-(2-cyano-2-(3-fluoropyridin-2-yl)vinyl)phenoxy)propanamido)-2-phenylethyl)boronic Acid]
22 | 5.45 | 6.49 | 8.10 | N#CC(=Cc1cccc(CCOC(=O)N[C@@H](Cc2ccccc2)B(O)O)c1)c1ccccn1 [Example 36, (R)-(1-(((3-(2-cyano-2-(pyridin-2-yl)vinyl)phenethoxy)carbonyl)amino)-2-phenylethyl)boronic Acid]
23 | 6.65 | 6.31 | 7.77 | CN(C)C(=O)C(C#N)=Cc1cccc(OCCC(=O)N[C@@H](Cc2ccccc2)B(O)O)c1F [Example 37, (R)-(1-(3-(3-(2-cyano-3-(dimethylamino)-3-oxoprop-1-en-1-yl)-2-fluorophenoxy)propanamido)-2-phenylethyl)boronic Acid]
24 | 6.65 | 6.79 | 8.14 | CN(C)C(=O)C(C#N)=Cc1ccc(Cl)c(OCCC(=O)N[C@@H](Cc2ccccc2)B(O)O)c1Cl [Example 38, (R)-(1-(3-(2,6-dichloro-3-(2-cyano-3-(dimethylamino)-3-oxoprop-1-en-1-yl)phenoxy)propanamido)-2-phenylethyl)boronic Acid]
25 | 6.49 | 6.87 | 7.85 | N#CC(=Cc1ccc(Cl)c(OCCC(=O)N[C@@H](Cc2ccccc2)B(O)O)c1Cl)c1ccccn1 [Example 39, (R)-(1-(3-(2,6-dichloro-3-(2-cyano-2-(pyridin-2-yl)vinyl)phenoxy)propanamido)-2-phenylethyl)boronic Acid]
26 | 7.13 | 7.15 | 8.07 | N#CC(=Cc1cccc(OCCC(=O)N[C@@H](Cc2ccccc2)B(O)O)c1F)c1ccccn1 [Example 40, (R)-(1-(3-(3-(2-cyano-2-(pyridin-2-yl)vinyl)-2-fluorophenoxy)propanamido)-2-phenylethyl)boronic Acid]
27 | 6.49 | 6.75 | 8.39 | CN(C)C(=O)C(C#N)=Cc1cc(F)cc(OCCC(=O)N[C@@H](Cc2ccccc2)B(O)O)c1 [Example 41, (R)-(1-(3-(3-(2-cyano-3-(dimethylamino)-3-oxoprop-1-en-1-yl)-5-fluorophenoxy)propanamido)-2-phenylethyl)boronic Acid]
28 | 6.41 | 6.72 | 8.22 | CN(C)C(=O)C(C#N)=Cc1cc(OCCC(=O)N[C@@H](Cc2ccccc2)B(O)O)ccc1F [Example 42, (R)-(1-(3-(3-(2-cyano-3-(dimethylamino)-3-oxoprop-1-en-1-yl)-4-fluorophenoxy)propanamido)-2-phenylethyl)boronic Acid]
